In patent US12070457B2, “Substituted pyridines, pyridazines, pyrimidines, and 1,2,3-triazines as bruton's tyrosine kinase inhibitors” (HUTCHISON MEDIPHARMA LIMITED, priority 2020, dated 2024):

Legend:
[1] = Stability test in liver microsomes (rat); format: in vitro ADME; conditions: 1 μM compound
How it was run: (§1)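 Compound (1 μM final) incubated 30 min at 37 °C with male CD-1 mouse or male SD rat pooled liver microsomes (0.5 mg/mL) in 50 mM phosphate buffer with 3 mM MgCl2, 1 mM EDTA and NADPH-regenerating system. Quenched with acetonitrile containing internal standard; LC-MS/MS gives percent remaining relative to 0-min sample.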

[2] = Stability test in liver microsomes (mouse); format: in vitro ADME; conditions: 1 μM compound
How it was run: as §1

[3] = 0.5 mg/mL liver microsomes, 30 minutes incubation

RLM, percentage of remaining compound after 30 minutes of incubation ([1]; rat liver microsomes, 30 min): 92.7%
MLM, percentage of remaining compound after 30 minutes of incubation ([2]; mouse liver microsomes, 30 min): 91.8%
Compound: C[C@H]1CN(C2COC2)CCN1c1ccc(Nc2cc(-c3ccnc(-n4ccn5c6c(cc5c4=O)CC(C)(C)C6)c3CO)cn(C)c2=O)nc1 [Compound 19]
stability in rat liver microsomes compared with reference GDC-0853 [1, 3]: better than that of the reference GDC-0853
stability in mouse liver microsomes compared with reference GDC-0853 [2, 3]: better than that of the reference GDC-0853
